The record followed here is paper PMC4957748, “Development of Novel Erythromycin Derivatives with Inhibitory Activity against Proliferation of Tumor Cells” (PLoS ONE, 2016).

Assay [1] deals with gastric adenocarcinoma (SGC-7901) cells. Kind of assay: MTT antiproliferative assay, SGC-7901. Type of assay: cell-based, human. Particulars: mean±SD of 3 experiments. As to the method:
(§1) In vitro antiproliferative activity against three human tumor cell lines, including gastric adenocarcinoma (SGC-7901), oral carcinoma (KB) and fibrosarcoma (HT-1080), was evaluated using the MTT assay with cis-platinum (Cpt) as the positive control.
(§2) The antiproliferative activity of the synthetic compounds was measured by 3-(4, 5- dimethylthiazol-2-yl)-2, 5-diphenyltetrazolium bromide (MTT) assay. Cells were seeded in 96-well plates (Corning, NY, USA) at a density of 8×10^3 per well. After 24 h of incubation, cells were treated with different concentrations (0.1, 0.3, 1, 3 and 10 μg/ml) of the EM-A dimers for the indicated time periods. Afterwards, MTT (Sigma, St. Louis, MO) solution [5.0 mg/ml in phosphate-buffered saline (PBS)] was added (20 μl/well) and incubated for another 4 h at 37°C. The purple formazan crystals were then dissolved in 100 μl dimethyl sulfoxide (DMSO). After 5 min, the plates were read on a plate microreader (TECANSPECTRA, Wetzlar, Germanay) at 490 nm. The IC50 values were obtained using the software of Dose–Effect Analysis with Microcomputers and were defined as concentration of drug causing 50% inhibition in absorbance compared with control cells. Assays were performed in triplicate from three independent experiments.

For assay [2], the system named is oral carcinoma (KB) cells. In words: MTT antiproliferative assay, KB. It counts as cell-based, human. Particulars: 24 h of drug exposure, mean±SD of 3 experiments. As to the method:
as §1, §2

Assay [3] deals with fibrosarcoma (HT-1080) cells. Kind of assay: MTT antiproliferative assay, HT-1080. It counts as cell-based, human. Particulars: mean±SD of 3 experiments. As for the experimental part: as §1, §2
Assay [4] has as its system normal mouse fibroblast cells (L929). Kind of assay: MTT assay, toxicity against normal fibroblasts L929. Type of assay: cell-based. As to the method: as §2
Assay [5] relates to gastric carcinoma (BGC-823) cells. In words: MTT antiproliferative assay, BGC-823. It counts as cell-based, human. Particulars: 24 h of drug exposure, mean±SD of 3 experiments. As to the method: (§3) All cell lines were purchased from American Type Culture Collection (ATCC, Manassas, VA, USA). Non-small cell lung carcinoma cells (A549), hepatocellular carcinoma cells (HepG-2) and breast carcinoma cells (MCF-7) were cultured in DMEM medium (Sigma, St. Louis, MO, USA), while gastric carcinoma cells (BGC-823), laryngeal carcinoma cells (Hep2), cervical carcinoma cells (HeLa) were cultured in RPMI-1640 medium (Sigma, St. Louis, MO, USA), which were supplemented with 10% fetal bovine serum (FBS; TBD, Tianjin, China) at 37°C in humidified atmosphere with 5% CO2.
as §2, with “The IC50 values were obtained using the software of Dose–Effect Analysis with Microcomputers and were defined as concentration of drug causing 50% inhibition in absorbance compared with control cells. Assays were performed in triplicate from three independent experiments.” left out

For assay [6], the system named is non-small cell lung carcinoma (A549) cells. Kind of assay: MTT antiproliferative assay, A549. It counts as cell-based, human. Particulars: 24 h of drug exposure, mean±SD of 3 experiments. As for the experimental part:
as §3
as §2, with “The IC50 values were obtained using the software of Dose–Effect Analysis with Microcomputers and were defined as concentration of drug causing 50% inhibition in absorbance compared with control cells. Assays were performed in triplicate from three independent experiments.” left out

In assay [7] the test system is hepatocellular carcinoma (HepG-2) cells. Kind of assay: MTT antiproliferative assay, HepG-2. Particulars: 24 h of drug exposure, mean±SD of 3 experiments. It counts as cell-based, human. As to the method: as §3
as §2, with “The IC50 values were obtained using the software of Dose–Effect Analysis with Microcomputers and were defined as concentration of drug causing 50% inhibition in absorbance compared with control cells. Assays were performed in triplicate from three independent experiments.” left out

Assay [8] relates to laryngeal carcinoma (Hep2) cells. Kind of assay: MTT antiproliferative assay, Hep2. It counts as cell-based, human. Particulars: 24 h of drug exposure, mean±SD of 3 experiments. As for the experimental part: as §3
as §2, with “The IC50 values were obtained using the software of Dose–Effect Analysis with Microcomputers and were defined as concentration of drug causing 50% inhibition in absorbance compared with control cells. Assays were performed in triplicate from three independent experiments.” left out

For assay [9], the system named is cervical carcinoma (HeLa) cells. Kind of assay: MTT antiproliferative assay, HeLa. It counts as cell-based, human. Particulars: 24 h of drug exposure, mean±SD of 3 experiments. As to the method:
as §3
as §2, with “The IC50 values were obtained using the software of Dose–Effect Analysis with Microcomputers and were defined as concentration of drug causing 50% inhibition in absorbance compared with control cells. Assays were performed in triplicate from three independent experiments.” left out

For assay [10], the system named is breast carcinoma (MCF-7) cells. Kind of assay: MTT antiproliferative assay, MCF-7. It counts as cell-based, human. Particulars: 24 h of drug exposure, mean±SD of 3 experiments. As to the method: as §3
as §2, with “The IC50 values were obtained using the software of Dose–Effect Analysis with Microcomputers and were defined as concentration of drug causing 50% inhibition in absorbance compared with control cells. Assays were performed in triplicate from three independent experiments.” left out

The structures appear in SMILES notation.

As for `N.N.[Cl][Pt][Cl]` [Cpt, cis-platinum], the IC50 in assay [1] (24 h of drug exposure) came to 4.9 ± 0.4 µM; in assay [2], 4.7 ± 0.3 µM; in assay [3] (24 h of drug exposure) it was 19.7 ± 1.5 µM; in assay [4] (24 h of drug exposure) it was 18.5 µM; in [5], 11.8 ± 0.2 µM; in [6], 5.8 ± 0.2 µM. Besides, the IC50 in assay [7] was 4.7 ± 0.4 µM; in assay [8], 12.3 ± 1.3 µM; in assay [9], 17.4 ± 1.4 µM; in [10], 2.9 ± 0.1 µM.

`CCC1OC(=O)C(C)C(O)C(C)C(OC2OC(C)CC(N(C)CC=CCN(C)C3CC(C)OC(OC4C(C)C(OC5CC(C)(OC)C(O)C(C)O5)C(C)C(=O)OC(CC)C(C)(O)C(O)C(C)C(=NO)C(C)CC4(C)OC)C3O)C2O)C(C)(OC)CC(C)C(=NO)C(C)C(O)C1(C)O` (centres unmarked) [Compound 1j]: the half-maximal inhibitory concentration (IC50) in assay [1] (Homo sapiens, SGC-7901, 24 h of drug exposure) was 30.6 ± 2.8 µM; in assay [2] (Homo sapiens, KB), 26.4 ± 2.4 µM; in assay [3] (Homo sapiens, HT-1080, 24 h of drug exposure), 23.7 ± 2.2 µM; in assay [4] (L929, 24 h of drug exposure), > 100 µM.
